According to patent publication EP0414894A1 (priority 1989, dated 1990):
“And” between values parts separate entries of the source, which are not always exact repeats. Equal values may be shown once. Read-outs that look alike come from different tables or passages of the source.

How the values were obtained:
[1] = tested on: domestic flies; experiment: insecticidal activity, full-scale (large-scale) test in premises; type: in vivo; details: 2% solution, 2-3 dishes per 20 m²; 72 hours
Procedure: The full-scale tests for activity of the insecticidal composition of the invention to domestic flies in habitable and industrial premises were carried out as follows. The Petri dishes containing a 2% solution of the insecticidal composition of the invention were located according 2-3-dishes per 20 m². The composition activity was evaluated by a direct estimation of killed insects in 72 hours or by using an adhesive tape to count the number of flies on its surface prior to and after conducting the test.

[2] = tested on: domestic flies; experiment: insecticidal activity, laboratory test in gauze boxes; type: in vivo; details: 2% solution in 5% aqueous glucose; observed in 48-72 hours
Procedure: The compound obtained was used for preparing an insecticidal composition which was a 2% solution of the compound in a 5% aqueous solution of glucose. The test for activity of the insecticidal composition of the invention was conducted on domestic flies. Into gause 10x10 cm boxes /6 boxes/ 6-7-day flies were placed in the number of 50 individuals per box, which were of both sexes. The Petri dishes containing the insecticidal composition of the invention were put into 5 boxes. The observations for fly death were carried out in 48-72 hours. The Petri dish containing a 5% aqueous glucose solution were placed into a control box.

[3] = tested on: Influenza A viruses; experiment: virulicidal activity, virus titer in allantoic fluid by hemagglutination-inhibition
[4] = tested on: Hepatitis B virus; experiment: virulicidal activity, HBsAg titer in blood serum
Text: table ratio instead of the test composition.

[5] = tested on: Meningopneumonia virus; design: species or system meningopneumonia pathogene/MP strain/
[6] = tested on: Escherichia coli; experiment: microbe, parasite or virus in culture; type: cell-based; details: for killing at 0.2 %: Escherichia coli, read-out: Death of micro-organisms, % E.coli
[7] = tested on: poliomyelitis virus
[8] = tested on: Staphylococcus aureus; experiment: microbe, parasite or virus in culture; type: cell-based; details: for killing at 0.2 %: Staphylococcus aureus, read-out: Death of micro-organisms, % S.aureus
[9] = concentration 1.0 % by mass, 30 min
[10] = concentration 1.0 % by mass, 60 min
[11] = concentration 2.0 % by mass, 30 min
[12] = concentration 2.0 % by mass, 60 min

`CC(C)OP(=NC(CO)C(O)c1ccc([N+](=O)[O-])cc1)(OC(C)C)OC(C)C` (stereo not drawn) [Example 3, triisopropoxyphosphazo-1-para-nitrophenyl-1,3-propandiol] was tested, and the “Death of flies, % Tests in large-scale” value [1] was 80.0% and the “Death of flies, % Tests in laboratory” value [2] was 82.0%.

`O=[N+]([O-])c1ccc(C(O)C(CO)N=P(OC(CCl)c2ccccc2)(OC(CCl)c2ccccc2)OC(CCl)c2ccccc2)cc1` (stereo not drawn) [Example 4, tris/2-chloro-1-phenylethoxy/phosphazo-1-para-nitrophenyl-1,3-propandiol] was tested, and the “Death of flies, % Tests in large-scale” value [1] was 75.0% and the “Death of flies, % Tests in laboratory” value [2] was 73.4%.

For `CC(C)OP(=NC(CCl)C(O)c1ccc([N+](=O)[O-])cc1)(OC(C)C)OC(C)C` (stereo not drawn) [Example 6, tri-isopropoxyphosphazo-1-para-nitrophenyl-1-chloro-3-propanol], the “Death of flies, % Tests in large-scale” value [1] was 89.0%, the “Virulicidal activity (%) under exposure 30 min” value ([3]; concentration 1.0 % by mass) was 75.0% and the “Virulicidal activity (%) under exposure 60 min” value ([3]; concentration 1.0 % by mass) was 98.0%. For the same compound, the “Virulicidal activity (%) under exposure 30 min” value ([3]; concentration 2.0 % by mass) was 93.8%, the “Virulicidal activity (%) under exposure 60 min” value ([3]; concentration 2.0 % by mass) was 100.0% and the “Death of flies, % Tests in laboratory” value [2] was 90.9%. For the same compound, the “Virulicidal activity (%) under exposure 30 min” value ([4]; concentration 1.0 % by mass) was 100.0%, the “Virulicidal activity (%) under exposure 60 min” value ([4]; concentration 1.0 % by mass) was 100.0% and the “Virulicidal activity (%) under exposure 30 min” value ([4]; concentration 2.0 % by mass) was 100,0%. For the same compound, the “Virulicidal activity (%) under exposure 60 min” value ([4]; concentration 2.0 % by mass) was 100,0%, the “Virulicidal activity (%) under exposure 30 min” value [5] was 99.0% and 100.0% and the “Virulicidal activity (%) under exposure 60 min” value [5] was 100.0%.

With `CCCCOP(=NC(CCl)C(O)c1ccc([N+](=O)[O-])cc1)(OCCCC)OCCCC` (stereo not drawn) [Example 7, tri-n-butoxyphosphazo-1-paranitrophenyl-1-chloro-3-propanol] the “Death of flies, % Tests in large-scale” value [1] was 96.8% and the “Death of flies, % Tests in laboratory” value [2] was 96.0%.

With `O=[N+]([O-])c1ccc(C(O)C(CCl)N=P(OC(CCl)c2ccccc2)(OC(CCl)c2ccccc2)OC(CCl)c2ccccc2)cc1` (stereo not drawn) [Example 8, tris/2-chlorol-phenylethoxy/-phosphazo-1-paranitrophenyl-1-chloro-3-propanol] the “Death of flies, % Tests in large-scale” value [1] was 84.0% and the “Death of flies, % Tests in laboratory” value [2] was 84.3%.

With `CCCOP(=NC(CCl)C(Cl)c1ccc([N+](=O)[O-])cc1)(OCCC)OCCC` (stereo not drawn) [Example 11, tri-n-propoxyphosphazo-1-para-nitrophenyl-1,3-dichloropropane] the “Death of flies, % Tests in large-scale” value [1] was 89.0% and the “Death of flies, % Tests in laboratory” value [2] was 89.0%.

`CC(C)OP(=NC(CCl)C(Cl)c1ccc([N+](=O)[O-])cc1)(OC(C)C)OC(C)C` (stereo not drawn) [Example 12, triisopropoxyphosphazo-1-paranitrophenyl] was tested, and the “Death of flies, % Tests in large-scale” value [1] was 90.0% and the “Death of flies, % Tests in laboratory” value [2] was 92.0%.

`CCCCOP(=NC(CCl)C(Cl)c1ccc([N+](=O)[O-])cc1)(OCCCC)OCCCC` (stereo not drawn) [Example 13, tri-n-butoxyphosphazo-1-para-nitrophenyl-1,3-dichloropropane] was tested, and the “Death of flies, % Tests in large-scale” value [1] was 91.0%, the “Virulicidal activity (%) under exposure 30 min” value ([3]; concentration 1.0 % by mass) was 50.0% and the “Virulicidal activity (%) under exposure 60 min” value ([3]; concentration 1.0 % by mass) was 75.0%. The “Virulicidal activity (%) under exposure 30 min” value ([3]; concentration 2.0 % by mass) was 93.8%, the “Virulicidal activity (%) under exposure 60 min” value ([3]; concentration 2.0 % by mass) was 100.0% and the “Death of flies, % Tests in laboratory” value [2] was 92.0%. The “Virulicidal activity (%) under exposure 30 min” value ([4]; concentration 1.0 % by mass) was 75.0%, the “Virulicidal activity (%) under exposure 60 min” value ([4]; concentration 1.0 % by mass) was 100.0% and the “Virulicidal activity (%) under exposure 30 min” value ([4]; concentration 2.0 % by mass) was 100,0%. The “Virulicidal activity (%) under exposure 60 min” value ([4]; concentration 2.0 % by mass) was 100,0%, the “Virulicidal activity (%) under exposure 30 min” value [5] was 75.0% and 99.0% and the “Virulicidal activity (%) under exposure 60 min” value [5] was 100.0%.

`O=[N+]([O-])c1ccc(C(Cl)C(CCl)N=P(OC(CCl)c2ccccc2)(OC(CCl)c2ccccc2)OC(CCl)c2ccccc2)cc1` (stereo not drawn) [Example 14, tris-/2-chloro-1-phenoxy/phosphazo-1-para-nitrophenyl-1,3-dichloropropane] was tested, and the “Death of flies, % Tests in large-scale” value [1] was 70.0%, the “Virulicidal activity (%) under exposure 30 min” value ([3]; concentration 1.0 % by mass) was 75.0% and the “Virulicidal activity (%) under exposure 60 min” value ([3]; concentration 1.0 % by mass) was 93.8%. For the same compound, the “Virulicidal activity (%) under exposure 30 min” value ([3]; concentration 2.0 % by mass) was 93.8%, the “Virulicidal activity (%) under exposure 60 min” value ([3]; concentration 2.0 % by mass) was 100.0% and the “Death of flies, % Tests in laboratory” value [2] was 71.3%. The “Virulicidal activity (%) under exposure 30 min” value ([4]; concentration 1.0 % by mass) was 100.0%, the “Virulicidal activity (%) under exposure 60 min” value ([4]; concentration 1.0 % by mass) was 100.0% and the “Virulicidal activity (%) under exposure 30 min” value ([4]; concentration 2.0 % by mass) was 100,0%. For the same compound, the “Virulicidal activity (%) under exposure 60 min” value ([4]; concentration 2.0 % by mass) was 100,0%, the “Virulicidal activity (%) under exposure 30 min” value [5] was 50.0% and 90.0% and the “Virulicidal activity (%) under exposure 60 min” value [5] was 75.0% and 100.0%.

In the case of `O=[N+]([O-])c1ccc(C(O)C(CO)N=P(Oc2ccccc2)(Oc2ccccc2)Oc2ccccc2)cc1` (stereo not drawn) [Example 21, triphenoxyphosphazo-1-para-nitrophenyl-1,3-propanol], the “Virulicidal activity (%) under exposure 30 min” value ([3]; concentration 1.0 % by mass) was 87.5%, the “Virulicidal activity (%) under exposure 60 min” value ([3]; concentration 1.0 % by mass) was 100.0% and the “Virulicidal activity (%) under exposure 30 min” value ([4]; concentration 1.0 % by mass) was 50.0%. For the same compound, the “Virulicidal activity (%) under exposure 60 min” value ([4]; concentration 1.0 % by mass) was 87.5%, the “Virulicidal activity (%) under exposure 30 min” value ([4]; concentration 2.0 % by mass) was 100,0% and the “Virulicidal activity (%) under exposure 60 min” value ([4]; concentration 2.0 % by mass) was 100,0%.

In the case of `O=[N+]([O-])c1ccc(C(O)C(CO)N=P(Cl)(Oc2ccccc2)Oc2ccccc2)cc1` (stereo not drawn) [Example 36, diphenoxychlorophosphazo-1-nitrophenyl-1,3-dihydroxypropyl], the “Death of micro-organisms, % E.coli” value [6] was 100.0%, the “Virulicidal activity (%) to poliomyelitis virus under exposure of 30 min” value (from here on “Virulicidal activity (%) … of 30 min”) [7] was 50.0% and 90.0% and the “Virulicidal activity (%) to poliomyelitis virus under exposure of 60 min” value (“Virulicidal activity (%) … of 60 min” for short) [7] was 80.0% and 90.0%. For the same compound, the “Death of micro-organisms, % S.aureus” value [8] was 90.0%.

`O=[N+]([O-])c1ccc(C(O)C(CO)N=P(Cl)(Oc2ccc(Cl)cc2)Oc2ccc(Cl)cc2)cc1` (stereo not drawn) [Example 37, di-para-chlorophenoxychlorophosphazo-1-para-nitrophenyl-1,3-dihydroxyisopropyl] was tested, and the “Death of micro-organisms, % E.coli” value [6] was 100.0%, the “Virulicidal activity (%) … of 30 min” value [7] was 60.0% and 90.0% and the “Virulicidal activity (%) … of 60 min” value [7] was 90.0% and 100.0%. For the same compound, the “Death of micro-organisms, % S.aureus” value [8] was 100.0%.

For `O=[N+]([O-])c1ccc(C(O)C(CO)N=P(Cl)(Cl)Oc2ccc(Cl)cc2)cc1` (stereo not drawn) [Example 39, para-chlorophenoxydichlorophosphazo-1-para-nitrophenyl-1,3-dihydroxyisopropyl], the “Death of micro-organisms, % E.coli” value [6] was 100.0%, the “Virulicidal activity (%) … of 30 min” value [7] was 70.0% and 95.0% and the “Virulicidal activity (%) … of 60 min” value [7] was 90.0% and 100.0%. The “Death of micro-organisms, % S.aureus” value [8] was 100.0%.

For `Cc1ccc(OP(=NC(CO)C(O)c2ccc([N+](=O)[O-])cc2)(Oc2ccc(C)cc2)Oc2ccc(C)cc2)cc1` (stereo not drawn) [Example 40, tri-para-methylphenoxy-1-para-nitrophenyl-1,3-dihydroxyisopropyl], the killing at 0.2 % [6] was 90%, the “Virulicidal activity (%) … of 30 min” value [7, 9] was 50.0% and the “Virulicidal activity (%) … of 60 min” value [7, 10] was 70.0%. For the same compound, the “Virulicidal activity (%) … of 30 min” value [7, 11] was 80.0%, the “Virulicidal activity (%) … of 60 min” value [7, 12] was 90.0% and the killing at 0.2 % [8] was 70%.

In the case of `O=[N+]([O-])c1ccc(C(O)C(CO)N=P(Oc2ccc(Cl)cc2)(Oc2ccc(Cl)cc2)Oc2ccc(Cl)cc2)cc1` (stereo not drawn) [Example 41, tri-para-chlorophenoxyphosphazo-1-para-nitrophenyl-1,3-dihydroxyisopropyl], the killing at 0.2 % [6] was 100%, the “Virulicidal activity (%) … of 30 min” value [7, 9] was 50.0% and the “Virulicidal activity (%) … of 60 min” value [7, 10] was 80.0%. For the same compound, the “Virulicidal activity (%) … of 30 min” value [7, 11] was 90.0%, the “Virulicidal activity (%) … of 60 min” value [7, 12] was 100.0% and the killing at 0.2 % [8] was 90%.
